In brackets after ≈: the same amount, converted by molar mass.

In one series the test system is Vero. Nature of the series: Cytotoxicity against African green monkey Vero cells after 72 hrs by MTT assay. The series is classed as cell-based. The note with it: Chlorocebus sabaeus. (In general: Tetrazolium dyes change colour on reduction, which living cells bring about.)
What is called IC50 is the concentration that inhibits the measured activity by half. `Cc1nn(CC(=O)N2c3ccccc3Sc3ccccc32)c(=N)s1` yielded a half-maximal inhibitory concentration (IC50) of 433 µg/mL (≈ 1220 µM).

`Cc1ccc(-c2nn(CC(=O)N3c4ccccc4Sc4ccccc43)c(=N)s2)cc1` came in with a 50% inhibitory concentration (IC50) of 215 µg/mL (≈ 499 µM).

For `N=c1sc(-c2ccc(F)cc2)nn1CC(=O)N1c2ccccc2Sc2ccc(Cl)cc21`, the IC50 is 465 µg/mL (≈ 992 µM).

`CCCc1nn(CC(=O)N2c3ccccc3Sc3ccc(C(F)(F)F)cc32)c(=N)s1` had an IC50 of 238 µg/mL (≈ 529 µM).

Turning to `N=c1sc(-c2ccc(Cl)cc2)nn1CC(=O)N1c2ccccc2Sc2ccc(Cl)cc21`, half-maximal inhibition (IC50) was put at 757 µg/mL (≈ 1560 µM).

`N=c1sc(-c2ccc(F)cc2)nn1CC(=O)N1c2ccccc2Sc2ccc(C(F)(F)F)cc21` showed a 50% inhibitory concentration (IC50) of 733 µg/mL (≈ 1460 µM).

Test system in the next series: not listed separately
The series can be described thus: Selectivity index, ratio of IC50 for African green monkey Vero cells to MIC for Mycobacterium tuberculosis H37Rv ATCC 27294. The series is classed as toxicity, cell-based.
Settings: not given
Take `Cc1nn(CC(=O)N2c3ccccc3Sc3ccccc32)c(=N)s1`: the selectivity ratio amounted to 271.

Consider `Cc1ccc(-c2nn(CC(=O)N3c4ccccc4Sc4ccccc43)c(=N)s2)cc1`, for which the selectivity ratio is 269.

In the case of `N=c1sc(-c2ccc(F)cc2)nn1CC(=O)N1c2ccccc2Sc2ccc(Cl)cc21`, the selectivity ratio is 149.

On to `CCCc1nn(CC(=O)N2c3ccccc3Sc3ccc(C(F)(F)F)cc32)c(=N)s1`, for which the selectivity ratio was 76.4.

With `N=c1sc(-c2ccc(Cl)cc2)nn1CC(=O)N1c2ccccc2Sc2ccc(Cl)cc21`, the selectivity ratio was 473.

Turning to `N=c1sc(-c2ccc(F)cc2)nn1CC(=O)N1c2ccccc2Sc2ccc(C(F)(F)F)cc21`, the selectivity ratio amounted to 458.

For another series, the system named is Mycobacterium tuberculosis. Nature of the series: Antimycobacterial activity against Mycobacterium tuberculosis H37Rv ATCC 27294 after 5 days by microplate alamar blue assay. The series is classed as functional. The note with it: H37Rv ATCC 27294, 120 h. Background: The colour change of resazurin is a common sign of viable cells or microbes.
Broadly, the MIC is the smallest concentration in the dilution series that meets the test's criterion for growth inhibition. For `Cc1nn(CC(=O)N2c3ccccc3Sc3ccccc32)c(=N)s1`, 1.6 µg/mL (≈ 4.51 µM) was the least that counted as inhibitory (MIC).

`Cc1ccc(-c2nn(CC(=O)N3c4ccccc4Sc4ccccc43)c(=N)s2)cc1`: the MIC stood at 0.8 µg/mL (≈ 1.86 µM).

In the case of `N=c1sc(-c2ccc(F)cc2)nn1CC(=O)N1c2ccccc2Sc2ccc(Cl)cc21`, 3.12 µg/mL (≈ 6.66 µM) was the least that counted as inhibitory (MIC).

Turning to `CCCc1nn(CC(=O)N2c3ccccc3Sc3ccc(C(F)(F)F)cc32)c(=N)s1`, 3.12 µg/mL (≈ 6.94 µM) was the least that counted as inhibitory (MIC).

`N=c1sc(-c2ccc(Cl)cc2)nn1CC(=O)N1c2ccccc2Sc2ccc(Cl)cc21` had a minimum inhibitory concentration (MIC) of 1.6 µg/mL (≈ 3.3 µM).

Turning to `N=c1sc(-c2ccc(F)cc2)nn1CC(=O)N1c2ccccc2Sc2ccc(C(F)(F)F)cc21`, the MIC came out at 1.6 µg/mL (≈ 3.18 µM).

A further series deals with Escherichia coli. The series can be described thus: Antibacterial activity against Escherichia coli at 75 ug/ml after 18 to 24 hrs by disc diffusion method. The note with it: read-out: IZ. The series is classed as functional.
Turning to `Cc1nn(CC(=O)N2c3ccccc3Sc3ccccc32)c(=N)s1`, the zone of inhibition at 75 µg/mL came out at 25 mm.

As for `Cc1ccc(-c2nn(CC(=O)N3c4ccccc4Sc4ccccc43)c(=N)s2)cc1`, the zone of inhibition at 75 µg/mL is 27 mm.

Consider `N=c1sc(-c2ccc(F)cc2)nn1CC(=O)N1c2ccccc2Sc2ccc(Cl)cc21`, for which the zone of inhibition at 75 µg/mL was determined as 12 mm.

In the case of `CCCc1nn(CC(=O)N2c3ccccc3Sc3ccc(C(F)(F)F)cc32)c(=N)s1`, the zone of inhibition at 75 µg/mL turned out to be 9 mm.

In the case of `N=c1sc(-c2ccc(Cl)cc2)nn1CC(=O)N1c2ccccc2Sc2ccc(Cl)cc21`, the zone of inhibition at 75 µg/mL turned out to be 15 mm.

For `N=c1sc(-c2ccc(F)cc2)nn1CC(=O)N1c2ccccc2Sc2ccc(C(F)(F)F)cc21`, the zone of inhibition at 75 µg/mL came out at 11 mm.

A further series concerns Escherichia coli. Nature of the series: Antibacterial activity against Escherichia coli at 50 ug/ml after 18 to 24 hrs by disc diffusion method. The series is classed as functional. Conditions: read-out: IZ. In general terms: In agar diffusion tests the substance spreads into inoculated agar from a disc or well.
In the case of `Cc1nn(CC(=O)N2c3ccccc3Sc3ccccc32)c(=N)s1`, the zone of inhibition at 50 µg/mL was determined as 20 mm.

In the case of `Cc1ccc(-c2nn(CC(=O)N3c4ccccc4Sc4ccccc43)c(=N)s2)cc1`, the zone of inhibition at 50 µg/mL came to 24 mm.

As to `N=c1sc(-c2ccc(F)cc2)nn1CC(=O)N1c2ccccc2Sc2ccc(Cl)cc21`, the zone of inhibition at 50 µg/mL is 7 mm.

Take `CCCc1nn(CC(=O)N2c3ccccc3Sc3ccc(C(F)(F)F)cc32)c(=N)s1`: the zone of inhibition at 50 µg/mL was 6 mm.

On to `N=c1sc(-c2ccc(Cl)cc2)nn1CC(=O)N1c2ccccc2Sc2ccc(Cl)cc21`, for which the zone of inhibition at 50 µg/mL is 12 mm.

As for `N=c1sc(-c2ccc(F)cc2)nn1CC(=O)N1c2ccccc2Sc2ccc(C(F)(F)F)cc21`, the zone of inhibition at 50 µg/mL is 9 mm.

Another series concerns Staphylococcus aureus. The series can be described thus: Antibacterial activity against Staphylococcus aureus at 75 ug/ml after 18 to 24 hrs by disc diffusion method. Conditions: read-out: IZ. The series is classed as functional.
Consider `Cc1nn(CC(=O)N2c3ccccc3Sc3ccccc32)c(=N)s1`, for which the zone of inhibition at 75 µg/mL worked out at 26 mm.

Consider `Cc1ccc(-c2nn(CC(=O)N3c4ccccc4Sc4ccccc43)c(=N)s2)cc1`, for which the zone of inhibition at 75 µg/mL amounted to 21 mm.

As for `N=c1sc(-c2ccc(F)cc2)nn1CC(=O)N1c2ccccc2Sc2ccc(Cl)cc21`, the zone of inhibition at 75 µg/mL turned out to be 9 mm.

On to `CCCc1nn(CC(=O)N2c3ccccc3Sc3ccc(C(F)(F)F)cc32)c(=N)s1`, for which the zone of inhibition at 75 µg/mL amounted to 11 mm.

Take `N=c1sc(-c2ccc(Cl)cc2)nn1CC(=O)N1c2ccccc2Sc2ccc(Cl)cc21`: the zone of inhibition at 75 µg/mL was found to be 17 mm.

Regarding `N=c1sc(-c2ccc(F)cc2)nn1CC(=O)N1c2ccccc2Sc2ccc(C(F)(F)F)cc21`, the zone of inhibition at 75 µg/mL was 10 mm.

For the next series, the system named is Staphylococcus aureus. Nature of the series: Antibacterial activity against Staphylococcus aureus at 50 ug/ml after 18 to 24 hrs by disc diffusion method. The series is classed as functional. Conditions: read-out: IZ.
For the compound `Cc1nn(CC(=O)N2c3ccccc3Sc3ccccc32)c(=N)s1`, the zone of inhibition at 50 µg/mL came to 22 mm.

With `Cc1ccc(-c2nn(CC(=O)N3c4ccccc4Sc4ccccc43)c(=N)s2)cc1`, the zone of inhibition at 50 µg/mL amounted to 16 mm.

Take `N=c1sc(-c2ccc(F)cc2)nn1CC(=O)N1c2ccccc2Sc2ccc(Cl)cc21`: the zone of inhibition at 50 µg/mL amounted to 5 mm.

On to `CCCc1nn(CC(=O)N2c3ccccc3Sc3ccc(C(F)(F)F)cc32)c(=N)s1`, for which the zone of inhibition at 50 µg/mL came out at 7 mm.

Turning to `N=c1sc(-c2ccc(Cl)cc2)nn1CC(=O)N1c2ccccc2Sc2ccc(Cl)cc21`, the zone of inhibition at 50 µg/mL stood at 15 mm.

Regarding `N=c1sc(-c2ccc(F)cc2)nn1CC(=O)N1c2ccccc2Sc2ccc(C(F)(F)F)cc21`, the zone of inhibition at 50 µg/mL came to 7 mm.

Another series has as its system Pseudomonas aeruginosa. The series can be described thus: Antibacterial activity against Pseudomonas aeruginosa at 75 ug/ml after 18 to 24 hrs by disc diffusion method. The series is classed as functional. The note with it: read-out: IZ.
For the compound `Cc1nn(CC(=O)N2c3ccccc3Sc3ccccc32)c(=N)s1`, the zone of inhibition at 75 µg/mL was determined as 25 mm.

On to `Cc1ccc(-c2nn(CC(=O)N3c4ccccc4Sc4ccccc43)c(=N)s2)cc1`, for which the zone of inhibition at 75 µg/mL was found to be 11 mm.

Consider `N=c1sc(-c2ccc(F)cc2)nn1CC(=O)N1c2ccccc2Sc2ccc(Cl)cc21`, for which the zone of inhibition at 75 µg/mL came to 10 mm.

Turning to `CCCc1nn(CC(=O)N2c3ccccc3Sc3ccc(C(F)(F)F)cc32)c(=N)s1`, the zone of inhibition at 75 µg/mL turned out to be 7 mm.

Regarding `N=c1sc(-c2ccc(Cl)cc2)nn1CC(=O)N1c2ccccc2Sc2ccc(Cl)cc21`, the zone of inhibition at 75 µg/mL worked out at 20 mm.

Regarding `N=c1sc(-c2ccc(F)cc2)nn1CC(=O)N1c2ccccc2Sc2ccc(C(F)(F)F)cc21`, the zone of inhibition at 75 µg/mL worked out at 13 mm.

A further series concerns Pseudomonas aeruginosa. Nature of the series: Antibacterial activity against Pseudomonas aeruginosa at 50 ug/ml after 18 to 24 hrs by disc diffusion method. The series is classed as functional. Conditions: read-out: IZ.
On to `Cc1nn(CC(=O)N2c3ccccc3Sc3ccccc32)c(=N)s1`, for which the zone of inhibition at 50 µg/mL is 20 mm.

Take `Cc1ccc(-c2nn(CC(=O)N3c4ccccc4Sc4ccccc43)c(=N)s2)cc1`: the zone of inhibition at 50 µg/mL was determined as 9 mm.

With `N=c1sc(-c2ccc(F)cc2)nn1CC(=O)N1c2ccccc2Sc2ccc(Cl)cc21`, the zone of inhibition at 50 µg/mL was 7 mm.

Consider `CCCc1nn(CC(=O)N2c3ccccc3Sc3ccc(C(F)(F)F)cc32)c(=N)s1`, for which the zone of inhibition at 50 µg/mL came out at 3 mm.

Turning to `N=c1sc(-c2ccc(Cl)cc2)nn1CC(=O)N1c2ccccc2Sc2ccc(Cl)cc21`, the zone of inhibition at 50 µg/mL was 15 mm.

With `N=c1sc(-c2ccc(F)cc2)nn1CC(=O)N1c2ccccc2Sc2ccc(C(F)(F)F)cc21`, the zone of inhibition at 50 µg/mL was 7 mm.

The record behind these values is ChEMBL document CHEMBL3739317, “Design of new phenothiazine-thiadiazole hybrids via molecular hybridization approach for the development of potent antitubercular agents” (Eur J Med Chem, 2015).
